According to US11453683B1, “KRas G12D inhibitors” (Mirati Therapeutics, Inc., priority 2019, dated 2022):
pIC50: −log10 of the molar value. Where a name gives a salt, the structure may show the parent alone.

Tested on: KRas G12D-mediated phosphorylation of ERK
Assay: Inhibition of KRas G12D-mediated phosphorylation of ERK in AGS cells
Format: cell-based
Conditions: Homo sapiens; AGS cells expressing G12D, 3 hours, phospho-ERK normalized to GAPDH
Outline: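 Fixed, methanol-permeabilized; phospho-ERK (Thr202/Tyr204) by in-cell immunofluorescence normalized to GAPDH. Percent of DMSO control, IC50 by 4-parameter fit.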

Structure (SMILES)	pIC50
CCc1c(F)ccc2cccc(-c3ncc4c(N5C[C@H]6CC[C@@H](C5)N6)nc(OCC56CCCN5CCC6)nc4c3F)c12 [Example 426, 4-((1R,5S)-3,8-diazabicyclo[3.2.1]octan-3-yl)-7-(8-ethyl-7-fluoronaphthalen-1-yl)-8-fluoro-2-((hexahydro-1H-pyrrolizin-7a-yl)methoxy)pyrido[4,3-d]pyrimidine]	6.64
Cc1c(Cl)cc2[nH]ncc2c1-c1ncc2c(N3CC4CCC(C3)N4)nc(OC[C@@]34CCCN3C[C@H](F)C4)nc2c1F (stereo in doubt) [Example 401, 4-((1R,5S)-3,8-diazabicyclo[3.2.1]octan-3-yl)-7-(6-chloro-5-methyl-1H-indazol-4-yl)-8-fluoro-2-((2-fluorotetrahydro-1H-pyrrolizin-7a(5H)-yl)methoxy)pyrido[4,3-d]pyrimidine]	6.22
CCc1cccc2cccc(-c3ncc4c(N5C[C@H]6CC[C@@H](C5)N6)nc(OCC56CCCN5CCC6)nc4c3F)c12 [Example 187, 4-((1R,5S)-3,8-diazabicyclo[3.2.1]octan-3-yl)-7-(8-ethylnaphthalen-1-yl)-8-fluoro-2-((tetrahydro-1H-pyrrolizin-7a(5H)-yl)methoxy)pyrido[4,3-d]pyrimidine]	6.35
Fc1c(-c2cccc3cccc(C4CC4)c23)ncc2c(N3C[C@H]4CC[C@@H](C3)N4)nc(OCC34CCCN3CCC4)nc12 [Example 335, 4-((1R,5S)-3,8-diazabicyclo[3.2.1]octan-3-yl)-7-(8-cyclopropylnaphthalen-1-yl)-8-fluoro-2-((tetrahydro-1H-pyrrolizin-7a(5H)-yl)methoxy)pyrido[4,3-d]pyrimidine]	4.98
CN(C)C1(C)CN(c2nc(N3C[C@H]4CC[C@@H](C3)N4)c3cnc(-c4cccc5cccc(Cl)c45)c(F)c3n2)C1 [Example 127, 1-(4-((1R,5S)-3,8-diazabicyclo[3.2.1]octan-3-yl)-7-(8-chloronaphthalen-1-yl)-8-fluoropyrido[4,3-d]pyrimidin-2-yl)-N,N,3-trimethylazetidin-3-amine]	< 4.78
C[C@@H]1C[C@@H]1c1ccccc1-c1ncc2c(N3C[C@H]4CC[C@@H](C3)N4)nc(OCC34CCCN3CCC4)nc2c1F [Example 286, 4-((1R,5S)-3,8-diazabicyclo[3.2.1]octan-3-yl)-8-fluoro-2-((hexahydro-1H-pyrrolizin-7a-yl)methoxy)-7-(2-((1S,2R)-2-methylcyclopropyl)phenyl)pyrido[4,3-d]pyrimidine]	5.76
Fc1c(-c2cccc3c2CC2CC32)ncc2c(N3CC4CCC(C3)N4)nc(OC[C@@]34CCCN3C[C@H](F)C4)nc12 (stereo partly drawn) [Example 438, 4-(3,8-diazabicyclo[3.2.1]octan-3-yl)-8-fluoro-2-(((2R,7aS)-2-fluorotetrahydro-1H-pyrrolizin-7a(5H)-yl)methoxy)-7-(1,1a,6,6a-tetrahydrocyclopropa[a]inden-5-yl)pyrido[4,3-d]pyrimidine]	5.79
CN1CCC[C@H]1COc1nc(N2C[C@H]3CC[C@@H](C2)N3)c2cnc(-c3cccc4c3C3(CC4)CC3)c(F)c2n1 [Example 162, 4-((1R,5S)-3,8-diazabicyclo[3.2.1]octan-3-yl)-7-(2′,3′-dihydrospiro[cyclopropane-1,1′-inden]-7′-yl)-8-fluoro-2-(((S)-1-methylpyrrolidin-2-yl)methoxy)pyrido[4,3-d]pyrimidine bis(2,2,2-trifluoroacetate)]	< 4.78
Fc1c(-c2cccc3cccc(OC(F)(F)F)c23)ncc2c(N3C[C@H]4CC[C@@H](C3)N4)nc(OCC34CCCN3CCC4)nc12 [Example 345, 4-((1R,5S)-3,8-diazabicyclo[3.2.1]octan-3-yl)-8-fluoro-2-((tetrahydro-1H-pyrrolizin-7a(5H)-yl)methoxy)-7-(8-(trifluoromethoxy)naphthalen-1-yl)pyrido[4,3-d]pyrimidine]	5.83
CC1(C)CN2CCCC2(COc2nc(N3CC4CCC(C3)N4)c3cnc(-c4cccc5cccc(Cl)c45)c(F)c3n2)C1 [Example 228, 4-((1R,5S)-3,8-diazabicyclo[3.2.1]octan-3-yl)-7-(8-chloronaphthalen-1-yl)-2-((2,2-dimethyltetrahydro-1H-pyrrolizin-7a(5H)-yl)methoxy)-8-fluoropyrido[4,3-d]pyrimidine bis-2,2,2-trifluoroacetate]	4.86
Cc1cccnc1CCOc1nc(N2C[C@H]3CC[C@@H](C2)N3)c2cnc(-c3cc(O)cc4ccccc34)c(F)c2n1 [Example 6, 4-(4-((1R,5S)-3,8-diazabicyclo[3.2.1]octan-3-yl)-8-fluoro-2-(2-(3-methylpyridin-2-yl)ethoxy)pyrido[4,3-d]pyrimidin-7-yl)naphthalen-2-ol]	4.94
CCc1cccc2cncc(-c3ncc4c(N5CC6CCC(C5)N6)nc(OCC56CCCN5C[C@H](F)C6)nc4c3F)c12 (mixture of isomers) [Example 324, 4-((1R,5S)-3,8-diazabicyclo[3.2.1]octan-3-yl)-7-(5-ethylisoquinolin-4-yl)-8-fluoro-2-((2-fluorotetrahydro-1H-pyrrolizin-7a(5H)-yl)methoxy)pyrido[4,3-d]pyrimidine]	6.06
Cn1cc([C@H]2CN3CCC[C@]3(COc3nc(N4CC5CCC(C4)N5)c4cnc(-c5cccc6cccc(Cl)c56)c(F)c4n3)C2)cn1 (stereo in doubt) [Example 220, 4-((1R,5S)-3,8-diazabicyclo[3.2.1]octan-3-yl)-7-(8-chloronaphthalen-1-yl)-8-fluoro-2-((2-(1-methyl-1H-pyrazol-4-yl)tetrahydro-1H-pyrrolizin-7a(5H)-yl)methoxy)pyrido[4,3-d]pyrimidine tris-hydrochloride salt]	5.87
COCCNC(=O)O[C@@H]1C[C@@H](COc2nc(N3C[C@H]4CC[C@@H](C3)N4)c3cnc(-c4cccc5cccc(Cl)c45)c(F)c3n2)N(C)C1 [Example 280, (3R,5S)-5-(((4-((1R,5S)-3,8-diazabicyclo[3.2.1]octan-3-yl)-7-(8-chloronaphthalen-1-yl)-8-fluoropyrido[4,3-d]pyrimidin-2-yl)oxy)methyl)-1-methylpyrrolidin-3-yl (2-methoxyethyl)carbamate]	5.21
C#Cc1c(F)ccc2cccc(-c3ncc4c(N5C[C@H]6CC[C@@H](C5)N6)nc(OC[C@@]56CCCN5C[C@H](F)C6)nc4c3F)c12 [Example 281, 4-((1R,5S)-3,8-diazabicyclo[3.2.1]octan-3-yl)-7-(8-ethynyl-7-fluoronaphthalen-1-yl)-8-fluoro-2-(((2R,7aS)-2-fluorohexahydro-1H-pyrrolizin-7a-yl)methoxy)pyrido[4,3-d]pyrimidine]	7.01
O[C@@H]1C[C@@H]2CN(c3nc(OCCn4ccnc4CF)nc4c(F)c(-c5cccc6cccc(Cl)c56)ncc34)C[C@H]1N2 [Example 168, (1R,5R,6R)-3-(7-(8-chloronaphthalen-1-yl)-8-fluoro-2-(2-(2-(fluoromethyl)-1H-imidazol-1-yl)ethoxy)pyrido[4,3-d]pyrimidin-4-yl)-3,8-diazabicyclo[3.2.1]octan-6-ol]	< 4.78
OCCOc1nc(N2C[C@H]3CC[C@@H](C2)N3)c2cnc(-c3cc(O)cc4ccccc34)c(F)c2n1 [Example 69, 4-(4-((1R,5S)-3,8-diazabicyclo[3.2.1]octan-3-yl)-8-fluoro-2-(2-hydroxyethoxy)pyrido[4,3-d]pyrimidin-7-yl)naphthalen-2-ol]	< 4.78
